Laboratory results from patent US5616606A, “Oligopeptide antiretroviral agents” (priority 1995, dated 1997).
Where “and” joins values, the source holds several entries; their conditions need not be identical. Equal entries are not always repeated. Where two headings read alike, the source gives them in different places.

Legend:
[1] = system: T4 lymphocytes (CEM cell line); experiment: NCI anti-HIV screen, toxicity control in uninfected cells; assay type: cell-based
poly(dA-dT) = experiment: ethidium displacement assay, poly(dA-dT); details: relative to ethidium 9.5 × 10^6 M^-1, average of repeat measurements
HBV = experiment: inhibition of HBV DNA replication in 2.2.15 cell cultures; assay type: cell-based; details: single well, dihydrochloride; for INT[…] DNA MONO.: 24 hours following the 9th day of treatment
[2] = solubility in DMSO, MeOH, H2O; assay type: physicochemical; details: H2O
2.2.15 cells = experiment: toxicity analysis, neutral red dye uptake in 2.2.15 cells; details: triplicate, ± standard deviation
[3] = dose 1.34 × 10^-3 Molar, Table VII
[4] = dose 1.34 × 10^-4 Molar, Table VII
[5] = dose 1.35 × 10^-5 Molar, Table VII
[6] = dose 1.35 × 10^-6 Molar, Table VII
[7] = dose 4.26 × 10^-4 Molar, Table VII
[8] = dose 4.26 × 10^-5 Molar, Table VII
[9] = dose 4.27 × 10^-6 Molar, Table VII
[10] = dose 4.28 × 10^-7 Molar, Table VII
[11] = HIV-1 infected CEM cells, 6 days, XTT, Tables VI-X
[12] = dose 1.79 × 10^-6 Molar, Table VI
[13] = dose 1.79 × 10^-7 Molar, Table VI
[14] = dose 1.79 × 10^-8 Molar, Table VI
[15] = dose 5.66 × 10^-6 Molar, Table VI
[16] = dose 5.67 × 10^-7 Molar, Table VI
[17] = dose 5.68 × 10^-8 Molar, Table VI
[18] = dose 5.68 × 10^-9 Molar, Table VI
[19] = dose 1.05 × 10^-8 Molar, Table VIII
[20] = dose 1.09 × 10^-7 Molar, Table VIII
[21] = dose 3.31 × 10^-6 Molar, Table VIII
[22] = dose 3.31 × 10^-7 Molar, Table VIII
[23] = dose 3.32 × 10^-8 Molar, Table VIII
[24] = dose […] 10^-6 Molar, Table VIII

## Cl.Cl.Cn1cc(NC(=O)c2cc(NC(=O)c3cccc(C(=O)Nc4cc(C(=O)Nc5cc(C(=O)NCCC(=N)N)n(C)c5)n(C)c4)c3)cn2C)cc1C(=O)NCCC(=N)N [Compound 20b, N,N'-di[1-methyl-2-[1-methyl-2-carboxamido(3-propionamidine)-4-pyrrole]-4-pyrrolyl] isophthalamide dihydrochloride]
[1]; [3]
  […] % of Control: 10.39 % of Control
[1]; [4]
  […] % of Control: 142.80 % of Control
[1]; [5]
  […] % of Control: 117.76 % of Control
[1]; [6]
  […] % of Control: 131.95 % of Control
[1]; [7]
  […] % of Control: -0.29 % of Control
[1]; [8]
  […] % of Control: 123.27 % of Control
[1]; [9]
  […] % of Control: 123.64 % of Control
[1]; [10]
  […] % of Control: 116.38 % of Control
HIV-1; [11]
  EC50: 3550 nM
HIV-1; [3]
  INFECTED RESPONSE % of Control: 4.26 % of Control
HIV-1; [4]
  INFECTED RESPONSE % of Control: 63.57 % of Control
HIV-1; [5]
  INFECTED RESPONSE % of Control: 117.45 % of Control
HIV-1; [6]
  INFECTED RESPONSE % of Control: 29.25 % of Control
HIV-1; [7]
  INFECTED RESPONSE % of Control: 0.02 % of Control
HIV-1; [8]
  INFECTED RESPONSE % of Control: 120.68 % of Control
HIV-1; [9]
  INFECTED RESPONSE % of Control: 64.76 % of Control
HIV-1; [10]
  INFECTED RESPONSE % of Control: 48.47 % of Control
poly(dA-dT)
  Kapp: 4.9e+07 M⁻¹

## Cl.Cl.Cn1cc(NC(=O)c2cc(NC(=O)/C=C\C(=O)Nc3cc(C(=O)Nc4cc(C(=O)NCCC(=N)N)n(C)c4)n(C)c3)cn2C)cc1C(=O)NCCC(=N)N [Compound 22b, N,N'-Di(1-methyl-2-carboxamido(3-(proprionamidine-4-pyrrole]-4-pyrrolyl)maleamidedihydrochloride]
HIV-1; [11]
  EC50: 4040 nM
HIV-1; Table XI
  EC50: 350 nM

## Cl.Cl.Cn1cc(NC(=O)c2cc(NC(=O)c3ccc(C(=O)Nc4cc(C(=O)Nc5cc(C(=O)NCCC(=N)N)n(C)c5)n(C)c4)cc3)cn2C)cc1C(=O)NCCC(=N)N [Compound 19b, N,N'-di[1-methyl-2-[1-methyl-2-carboxamido(3-propionamidine)-4-pyrrole]-4-pyrrolyl] terephthalamide dihydrochloride]
[1]
  […] % of Control: 192.17 % of Control
[1]; Table XI
  IC50: 17.9 µM
[1]; [12]
  […] % of Control: 136.50 % of Control
[1]; [13]
  […] % of Control: 92.72 % of Control
[1]; [14]
  […] % of Control: 92.56 % of Control
[1]; [15]
  […] % of Control: 164.46 % of Control
[1]; [16]
  […] % of Control: 88.21 % of Control
[1]; [17]
  […] % of Control: 94.69 % of Control
[1]; [18]
  […] % of Control: 68.62 % of Control
[1]; uninfected CEM cells, 6 days, XTT, Tables VI-X
  IC50: > 1.79 × 10^-5 Molar
HIV-1; [11]
  EC50: 2080 nM
HIV-1; Table XI
  EC50: 1210 nM
HIV-1; dose 1.79 × 10^-5 Molar, Table VI
  INFECTED RESPONSE % of Control: 167.25 % of Control
HIV-1; [12]
  INFECTED RESPONSE % of Control: 51.73 % of Control
HIV-1; [13]
  INFECTED RESPONSE % of Control: 29.97 % of Control
HIV-1; [14]
  INFECTED RESPONSE % of Control: 33.00 % of Control
HIV-1; [15]
  INFECTED RESPONSE % of Control: 134.54 % of Control
HIV-1; [16]
  INFECTED RESPONSE % of Control: 28.86 % of Control
HIV-1; [17]
  INFECTED RESPONSE % of Control: 23.70 % of Control
HIV-1; [18]
  INFECTED RESPONSE % of Control: 39.64 % of Control
poly(dA-dT)
  Kapp: 4.3e+07 M⁻¹

## Cl.Cl.Cn1cc(NC(=O)c2cc(NC(=O)/C=C/C(=O)Nc3cc(C(=O)Nc4cc(C(=O)NCCC(=N)N)n(C)c4)n(C)c3)cn2C)cc1C(=O)NCCC(=N)N [Compound 21b, N,N'-di[1-methyl-2-[1-methyl-2-carboxamido(3-propionamidine)-4-pyrrole]-4-4pyrrolyl] fumaride dihydrochloride]
[1]; [19]
  […] % of Control: 83.05 % of Control
[1]; [20]
  […] % of Control: 90.26 % of Control
[1]; [21]
  […] % of Control: 151.83 % of Control
[1]; [22]
  […] % of Control: 88.21 % of Control
[1]; [23]
  […] % of Control: 67.56 % of Control
[1]; [24]
  […] % of Control: 83.87 % of Control
HIV-1; [11]
  EC50: 1670 nM
HIV-1; Table XI
  EC50: 1370 nM
HIV-1; [19]
  INFECTED RESPONSE % of Control: 18.00 % of Control
HIV-1; [20]
  INFECTED RESPONSE % of Control: 26.15 % of Control
HIV-1; [21]
  INFECTED RESPONSE % of Control: 96.78 % of Control
HIV-1; [22]
  INFECTED RESPONSE % of Control: 20.00 % of Control
HIV-1; [23]
  INFECTED RESPONSE % of Control: 22.96 % of Control
HIV-1; [24]
  INFECTED RESPONSE % of Control: 38.90 % of Control
poly(dA-dT)
  Kapp: 4.9e+07 M⁻¹

## Cl.Cl.Cn1cc(NC(=O)c2cc(NC(=O)CCCCC(=O)Nc3cc(C(=O)Nc4cc(C(=O)NCCC(=N)N)n(C)c4)n(C)c3)cn2C)cc1C(=O)NCCC(=N)N [Compound 7, N,N'-Di(1-methyl-2-[1-methyl-2-carboxamido(3-proprionamidine)-4-pyrrole]-4-pyrrolyl) adipamide dihydrochloride]
HBV; 10 μM
  INT[…] DNA MONO.: 2.1 pg/μg CELL DNA and 2.3 pg/μg CELL DNA and 2.2 pg/μg CELL DNA and 2.6 pg/μg CELL DNA
  HBV VIRION DNA DAY 6: 68 pg/ml CULTURE MEDIUM and 67 pg/ml CULTURE MEDIUM and 57 pg/ml CULTURE MEDIUM and 50 pg/ml CULTURE MEDIUM
  HBV VIRION DNA DAY 9: 56 pg/ml CULTURE MEDIUM and 57 pg/ml CULTURE MEDIUM and 87 pg/ml CULTURE MEDIUM and 58 pg/ml CULTURE MEDIUM
HBV; 10 μM, day 0
  HBV VIRION DNA DAY 0: 75 pg/ml CULTURE MEDIUM and 92 pg/ml CULTURE MEDIUM and 60 pg/ml CULTURE MEDIUM and 55 pg/ml CULTURE MEDIUM
HBV; 50 μM
  INT[…] DNA MONO.: 2.7 pg/μg CELL DNA and 2.5 pg/μg CELL DNA and 2.3 pg/μg CELL DNA
  HBV VIRION DNA DAY 6: 67 pg/ml CULTURE MEDIUM and 75 pg/ml CULTURE MEDIUM and 83 pg/ml CULTURE MEDIUM and 69 pg/ml CULTURE MEDIUM
HBV; 50 μM, zero = undetectable, cutoff 0.1 pg/ml
  HBV VIRION DNA DAY 9: 63 pg/ml CULTURE MEDIUM and 68 pg/ml CULTURE MEDIUM and 77 pg/ml CULTURE MEDIUM and 66 pg/ml CULTURE MEDIUM
[2]
  Solubility in H2O: good
2.2.15 cells; 30 μg/ml
  NEUTRAL RED DYE UPTAKE: 102 ± 1 % OF CONTROL
2.2.15 cells; 300 μg/ml
  NEUTRAL RED DYE UPTAKE: 98 ± 2 % OF CONTROL
